Patent US10544130B2, “Metallo-beta-lactamase inhibitors” (priority 2015, dated 2020)
Where a name gives a salt, the structure may show the parent alone. Read-outs that look alike come from different tables or passages of the source.

Test system: Pseudomonas aeruginosa PAO1 MB9798 (efflux+, IMP-1)
Details: imipenem at 2 μg/mL
In short: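 Isogenic PAO1 pair (efflux+ MB9798, efflux− MB9799, both IMP-1) tested by microbroth MIC with fixed imipenem and/or ceftazidime, usually at CLSI breakpoint, plus fixed class A/C inhibitor against AmpC. MBL inhibitor titrated; concentration restoring susceptibility recorded and fold difference between strains taken as efflux extent.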

[1] = ratio MITC95 PA 9798/MITC95 PA 9799

Row | Compound | Efflux ratio [1] | Efflux ratio (fold difference between efflux + (MB9798) and efflux − (MB9799) strains)
1 | NS(=O)(=O)c1c(S(=O)(=O)N[C@@H]2CCNC2)ccc(-c2cccc3nonc23)c1-c1nn[nH]n1 [Example 238, (R)-4-(benzo[c][1,2,5]oxadiazol-4-yl)-N^1-(pyrrolidin-3-yl)-3-(2H-tetrazol-5-yl)benzene-1,2-disulfonamide] | 4.00 | –
2 | NCCNS(=O)(=O)c1ccc(-c2cccc3nonc23)c(-c2nn[nH]n2)c1S(N)(=O)=O [Example 239, N^1-(2-aminoethyl)-4-(benzo[c][1,2,5]oxadiazol-4-yl)-3-(2H-tetrazol-5-yl)benzene-1,2-disulfonamide] | 8.00 | –
3 | Nc1nc2c(-c3ccc(S(=O)(=O)N[C@H]4CNC[C@H]4N)c(S(N)(=O)=O)c3-c3nn[nH]n3)cccc2[nH]1 [Example 241, 4-(2-amino-1H-benzo[d]imidazol-4-yl)-N^1-((3S,4R)-4-aminopyrrolidin-3-yl)-3-(2H-tetrazol-5-yl)benzene-1,2-disulfonamide] | 0.83 | –
4 | CNc1ccc(-c2ccc(S(=O)(=O)NCCN)c(S(N)(=O)=O)c2-c2nn[nH]n2)cn1 [Example 243, N^1-(2-aminoethyl)-4-(6-(methylamino)pyridin-3-yl)-3-(2H-tetrazol-5-yl)benzene-1,2-disulfonamide] | 1.00 | –
5 | Nc1nc2c(-c3ccc(S(=O)(=O)NC4CNC4)c(S(N)(=O)=O)c3-c3nn[nH]n3)cccc2[nH]1 [Example 252, 4-(2-amino-1H-benzo[d]imidazol-4-yl)-N1-(azetidin-3-yl)-3-(2H-tetrazol-5-yl)benzene-1,2-disulfonamide] | 0.68 | –
6 | Cc1ccc(-c2ccc(S(=O)(=O)N[C@@H]3CCNC3)c(S(N)(=O)=O)c2-c2nn[nH]n2)c2nc(N)[nH]c12 [Example 285, (R)-4-(2-amino-7-methyl-1H-benzo[d]imidazol-4-yl)-N1-(pyrrolidin-3-yl)-3-(2H-tetrazol-5-yl)benzene-1,2-disulfonamide] | 1.00 | –
7 | N[C@H](CO)CNS(=O)(=O)c1ccc(-c2cccc3[nH]cnc23)c(-c2nn[nH]n2)c1S(N)(=O)=O [Example 296, (S)—N^1-(2-amino-3-hydroxypropyl)-4-(1H-benzo[d]imidazol-4-yl)-3-(2H-tetrazol-5-yl)benzene-1,2-disulfonamide] | 1.00 | –
8 | NC[C@@H](O)CNS(=O)(=O)c1ccc(-c2cccc3[nH]c(N)nc23)c(-c2nn[nH]n2)c1S(N)(=O)=O [Example 298, (R)-4-(2-amino-1H-benzo[d]imidazol-4-yl)-N1-(3-amino-2-hydroxypropyl)-3-(2H-tetrazol-5-yl)-benzene-1,2-disulfonamide] | 0.69 | –
9 | NCc1nc2c(-c3ccc(S(=O)(=O)NC[C@H](O)CN)c(S(N)(=O)=O)c3-c3nn[nH]n3)cccc2s1 [Example 300, (R)—N1-(3-amino-2-hydroxypropyl)-4-(2-(aminomethyl)benzo[d]thiazol-4-yl)-3-(2H-tetrazol-5-yl)benzene-1,2-disulfonamide] | 1.00 | –
10 | NC[C@@H](O)CNS(=O)(=O)c1ccc(-c2cccc3[nH]cnc23)c(-c2nn[nH]n2)c1S(N)(=O)=O [Example 301, (R)-4-(1H-benzo[d]imidazol-4-yl)-N1-(3-amino-2-hydroxypropyl)-3-(2H-tetrazol-5-yl)-benzene-1,2-disulfonamide] | 1.00 | –
11 | NC[C@@H](O)CNS(=O)(=O)c1ccc(-c2ccc(N)nc2)c(-c2nn[nH]n2)c1S(N)(=O)=O [Example 303, (R)-N1-(3-amino-2-hydroxypropyl)-4-(6-aminopyridin-3-yl)-3-(2H-tetrazol-5-yl)benzene-1,2-disulfonamide] | 1.00 | –
12 | NCc1nc2c(-c3ccc(S(=O)(=O)NC[C@@H](O)CN)c(S(N)(=O)=O)c3-c3nn[nH]n3)cccc2[nH]1 [Example 305, (S)—N1-(3-amino-2-hydroxypropyl)-4-(2-(aminomethyl)-1H-benzo[d]imidazole-4-yl)-3-(2H-tetrazol-5-yl)benzene-1,2-disulfonamide] | 1.00 | –
13 | NC[C@H](O)CNS(=O)(=O)c1ccc(-c2cccc3[nH]cnc23)c(-c2nn[nH]n2)c1S(N)(=O)=O [Example 307, (S)-4-(1H-benzo[d]imidazol-4-yl)-N1-(3-amino-2-hydroxypropyl)-3-(2H-tetrazol-5-yl)-benzene-1,2-disulfonamide] | 1.00 | –
14 | NC[C@H](O)CNS(=O)(=O)c1ccc(-c2ccc(N)nc2)c(-c2nn[nH]n2)c1S(N)(=O)=O [Example 309, (S)-N1-(3-amino-2-hydroxypropyl)-4-(6-aminopyridin-3-yl)-3-(2H-tetrazol-5-yl)benzene-1,2-disulfonamide] | 1.00 | –
15 | Nc1ccc(-c2ccc(S(=O)(=O)NC[C@@H]3CNCCN3)c(S(N)(=O)=O)c2-c2nn[nH]n2)cn1 [Example 312, (S)-4-(6-aminopyridin-3-yl)-N1-(piperazin-2-ylmethyl)-3-(2H-tetrazol-5-yl)benzene-1,2-disulfonamide] | 1.00 | –
16 | Nc1ccc(-c2ccc(S(=O)(=O)NC[C@H]3CNCCN3)c(S(N)(=O)=O)c2-c2nn[nH]n2)cn1 [Example 315, (R)-4-(6-aminopyridin-3-yl)-N1-(piperazin-2-ylmethyl)-3-(1H-tetrazol-5-yl)benzene-1,2-disulfonamide] | 1.00 | –
17 | Nc1ncccc1-c1ccc(S(=O)(=O)NC[C@H]2CNCCN2)c(S(N)(=O)=O)c1-c1nn[nH]n1 [Example 316, (R)-4-(2-aminopyridin-3-yl)-N1-(piperazin-2-ylmethyl)-3-(1H-tetrazol-5-yl)benzene-1,2-disulfonamide] | 2.00 | –
18 | C[C@H](CN)NS(=O)(=O)c1ccc(-c2cccc(N)n2)c(-c2nn[nH]n2)c1S(N)(=O)=O [Example 318, (R)—N1-(1-aminopropan-2-yl)-4-(6-aminopyridin-2-yl)-3-(2H-tetrazol-5-yl) benzene-1,2-disulfonamide] | 1.00 | –
19 | Nc1ccc2cccc(-c3ccc(S(=O)(=O)N[C@@H]4CNC[C@@H]4N)c(S(N)(=O)=O)c3-c3nn[nH]n3)c2n1 [Example 319, N^1-((3R,4S)-4-aminopyrrolidin-3-yl)-4-(2-aminoquinolin-8-yl)-3-(2H-tetrazol-5-yl)benzene-1,2-disulfonamide] | 1.00 | –
20 | NCCNS(=O)(=O)c1ccc(-c2cccc(C(=O)NC[C@@H](N)CO)c2N)c(-c2nn[nH]n2)c1S(N)(=O)=O [Example 332, (R)-2-amino-N-(2-amino-3-hydroxypropyl)-4′-(N-(2-aminoethyl)sulfamoyl)-3′-sulfamoyl-2′-(2H-tetrazol-5-yl)-[1,1′-biphenyl]-3-carboxamide] | 1.00 | –
21 | NCCNS(=O)(=O)c1ccc(-c2cccc(C(=O)NC[C@H](N)CO)c2N)c(-c2nn[nH]n2)c1S(N)(=O)=O [Example 333, (S)-2-amino-N-(2-amino-3-hydroxypropyl)-4′-(N-(2-aminoethyl)sulfamoyl)-3′-sulfamoyl-2′-(2H-tetrazol-5-yl)-[1,1′-biphenyl]-3-carboxamide] | 1.00 | –
22 | NCCNS(=O)(=O)c1ccc(C2CCC[C@H](N)C2)c(-c2nn[nH]n2)c1S(N)(=O)=O (stereo partly drawn) [Example 342, 4-((3S)-3-aminocyclohexyl)-N1-(2-aminoethyl)-3-(2H-tetrazol-5-yl)benzene-1,2-disulfonamide] | 4.00 | –
23 | NCCNS(=O)(=O)c1ccc(-c2ccc3ncn(CCN)c3c2)c(-c2nn[nH]n2)c1S(N)(=O)=O [Example 348, N^1-(2-aminoethyl)-4-(1-(2-aminoethyl)-1H-benzo[d]imidazol-6-yl)-3-(2H-tetrazol-5-yl)benzene-1,2-disulfonamide] | 4.00 | –
24 | Nc1ccc(-c2ccc(S(=O)(=O)NC[C@@H](N)CO)c(S(N)(=O)=O)c2-c2nn[nH]n2)cn1 [Example 365, (R)—N1-(2-amino-3-hydroxypropyl)-4-(6-aminopyridin-3-yl)-3-(2H-tetrazol-5-yl) benzene-1,2-disulfonamide] | 2.00 | –
25 | Nc1ccc(-c2ccc(S(=O)(=O)NC[C@]3(N)CCNC3)c(S(N)(=O)=O)c2-c2nn[nH]n2)cn1 [Example 368, (S)-4-(6-aminopyridin-3-yl)-N1-((3-aminopyrrolidin-3-yl)methyl)-3-(2H-tetrazol-5-yl)benzene-1,2-disulfonamide] | 1.00 | –
26 | Nc1ccc(-c2ccc(S(=O)(=O)NC[C@@]3(N)CCNC3)c(S(N)(=O)=O)c2-c2nn[nH]n2)cn1 [Example 369, (R)-4-(6-aminopyridin-3-yl)-N1-((3-aminopyrrolidin-3-yl)methyl)-3-(2H-tetrazol-5-yl)benzene-1,2-disulfonamide] | 1.00 | –
27 | NC[C@H](N)CNS(=O)(=O)c1ccc(-c2cccc3ccc(N)nc23)c(-c2nn[nH]n2)c1S(N)(=O)=O [Example 371, (S)-4-(2-aminoquinolin-8-yl)-N1-(2,3-diaminopropyl)-3-(2H-tetrazol-5-yl)benzene-1,2-disulfonamide] | 1.00 | –
28 | NC[C@@H](N)CNS(=O)(=O)c1ccc(-c2cccc3ccc(N)nc23)c(-c2nn[nH]n2)c1S(N)(=O)=O [Example 376, (R)-4-(2-aminoquinolin-8-yl)-N1-(2,3-diaminopropyl)-3-(2H-tetrazol-5-yl)benzene-1,2-disulfonamide] | 1.00 | –
29 | C[N+](C)(C)CCNS(=O)(=O)c1ccc(-c2cccc3sc(N)nc23)c(-c2nnn[nH]2)c1S(N)(=O)=O [Example 391, 2-({[4-(2-amino-1,3-benzothiazol-4-yl)-2-sulfamoyl-3-(1H-tetrazol-5-yl)phenyl]sulfonyl}amino)-N,N,N-trimethylethanaminium trifluoroacetate] | – | 1.00
